{
  "source": "patent US20220387350A1",
  "about": "“CANNABIDIVARIN PREPARATIONS FOR USE AS A MEDICAMENT” (GW Research Limited, priority 2019, published 2022)",
  "key": {"[1]": {"conditions": "cited from earlier work"}, "[2]": {"experiment": "Autofluorescence excitation scan (Ensight multimodal plate reader)", "assay_type": "physicochemical", "conditions": "100 mM; for excitation peak point (first, lower-wavelength peak) / excitation peak point (second, higher-wavelength peak) / fluorescence intensity at first excitation peak / fluorescence intensity at second excitation peak: ethanol as vehicle", "protocol": "(§1) Botanically derived purified CBDV (BOT) and Synthetic CBDV (SYN) were tested in duplicates at five concentrations of 0.1 mM, 0.5 mM, 1 mM, 50 mM and 100 mM in 100% DMSO or 100% Ethanol.\n(§2) 200 μL of each sample or buffer were added into microplates in duplicate. Measurement has been performed on the Ensight multimodal plate reader (Perkin Elmer).\nAn excitation scan was used to detect the excitation peak for each test substance. The excitation scan was set from 230 to 380 nm and below the emission wavelength of 400 nm. The excitation scan was also set from 230 to 420 nm and below the emission wavelength of 440 nm. In both cases, a step increment of 2 nm was used for these scans.\nBased on these analyses, the peaks of excitation wavelengths for the two tentative emission wavelengths were determined and used to identify the optimal excitation wavelength/s."}, "[3]": {"experiment": "Autofluorescence emission scan (Ensight multimodal plate reader)", "assay_type": "physicochemical", "conditions": "100 mM", "protocol": "as §1, §2\nIn order to confirm the emission peak of the test substance, an emission scan was performed using the excitation peaks identified after the excitation scan. The […] was set to start for botanically derived purified CBDV and synthetic CBDV at 20 nm above the tentative excitation values using a step increment of 2 nm. Wavelengths up to 800 nm were scanned for emission.\nThe wavelength giving the maximum emission for the samples was defined as the optimal emission wavelength for the chosen excitation wavelength."}, "[4]": {"tested_on": "sub-chronic PCP-induced deficit in novel object recognition", "experiment": "Novel object recognition (NOR) test after sub-chronic PCP, animal model of schizophrenia", "assay_type": "in vivo, rat (female hooded-Lister)", "source_text": "The effect of PCP in the novel object recognition (NOR) test is a model of visual recognition memory deficits similar to those observed in schizophrenia. The atypical antipsychotics, clozapine and risperidone, can attenuate the deficit. The study was designed to determine if botanically derived purified CBDV and/or synthetic CBDV could attenuate the deficits in novel object recognition caused by administration of PCP.\nFemale hooded-Lister rats were used for this experiment. Rats were housed in groups of 5 under standard laboratory conditions under a 12 hr light: dark cycle, with lights on at 0700 hr. Testing was carried out in the light phase. Rats were randomly assigned to two treatment groups and treated with vehicle, n=15 (distilled water, i.p.) or Phencyclidine hydrochloride (PCP), n=75 (2 mg/kg, i.p. twice daily for 7-days). PCP was dissolved in distilled water. This was followed by a 7-day wash out period before the rats were tested following acute treatment with […], risperidone or vehicle. […]\nFollowing the 3 minute habituation period, the rats are given two 3 minute trials (T1 and T2) which were separated by a 1 minute inter-trial interval in the home cage during which the objects were changed. Behavior in all trials was recorded on video for subsequent blind scoring. […]\nThe exploration time(s) of each object (A, B, familiar and novel) in each trial were recorded using two stopwatches and the following factors were calculated: total exploration time of both objects in the acquisition trial, total exploration time of both objects in the retention trial. Habituation of exploratory activity included the exploration time, as measured by the number of lines crossed, for both trials.\nAll data were assessed for normality using D'Agostino and Pearson normality test. Data non-normally distributed were analyzed using Kruskal-Wallis followed by planned comparisons with Dunn's correction. Normally distributed data were analyzed using one-way ANOVA followed by planned comparisons with Sidak's correction. […]"}, "[5]": {"conditions": "emission wavelength set at 400 nm"}, "[6]": {"conditions": "emission wavelength set at 440 nm"}, "[7]": {"conditions": "DMSO as vehicle, excitation wavelength set at 328 nm"}, "[8]": {"conditions": "DMSO as vehicle, excitation wavelength set at 334 nm"}, "[9]": {"conditions": "DMSO as vehicle, excitation wavelength set at 344 nm"}, "[10]": {"conditions": "ethanol as vehicle, excitation wavelength set at 326 nm"}, "[11]": {"conditions": "ethanol as vehicle, excitation wavelength set at 340 nm"}},
  "note": "Values joined by “and” are separate entries in the source; they are usually repeats but may differ in a detail not shown here. Equal entries are not always repeated.",
  "data": [
    {"smiles": "C=C(C)[C@@H]1CCC(C)=C[C@H]1c1c(O)cc(CCC)cc1O", "note": "[CBDV, 2-[(1R,6R)-3-Methyl-6-(1-methylethenyl)-2-cyclohexen-1-yl]-5-propyl-1,3-benzenediol]", "values": [
      {"measurement": "solubility in organic solvents", "setting": "[1]; organic solvents", "result": "soluble"},
      {"measurement": "solubility in water", "setting": "[1]; water", "result": "insoluble"}
    ]},
    {"smiles": "C=C(C)[C@@H]1CCC(C)=C[C@H]1c1c(O)cc(CCC)cc1O", "note": "[synthetic CBDV, Cannabidivarin]", "values": [
      {"measurement": "excitation peak point (first, lower-wavelength peak)", "setting": "[2]; [5]", "result": 282, "unit": "nm"},
      {"measurement": "excitation peak point (second, higher-wavelength peak)", "setting": "[2]; [5]", "result": 324, "unit": "nm"},
      {"measurement": "fluorescence intensity at first excitation peak", "setting": "[2]; [5]", "result": 139797, "unit": "au"},
      {"measurement": "fluorescence intensity at second excitation peak", "setting": "[2]; [5]", "result": 123100, "unit": "au"},
      {"measurement": "excitation peak point (first, lower-wavelength peak)", "setting": "[2]; [6]", "result": 280, "unit": "nm"},
      {"measurement": "excitation peak point (second, higher-wavelength peak)", "setting": "[2]; [6]", "result": 326, "unit": "nm"},
      {"measurement": "fluorescence intensity at first excitation peak", "setting": "[2]; [6]", "result": 39433, "unit": "au"},
      {"measurement": "fluorescence intensity at second excitation peak", "setting": "[2]; [6]", "result": 41443, "unit": "au"},
      {"measurement": "excitation peak points", "setting": "[2]; pure DMSO as vehicle, emission wavelength set at 400 nm", "result": "282 nm and 326 nm"},
      {"measurement": "emission peak point", "setting": "[3]; [7]", "result": 394, "unit": "nm"},
      {"measurement": "fluorescence intensity at emission peak", "setting": "[3]; [7]", "result": 264597, "unit": "au"},
      {"measurement": "emission peak point", "setting": "[3]; [8]", "result": 392, "unit": "nm"},
      {"measurement": "fluorescence intensity at emission peak", "setting": "[3]; [8]", "result": 201880, "unit": "au"},
      {"measurement": "emission peak point", "setting": "[3]; [9]", "result": 390, "unit": "nm"},
      {"measurement": "fluorescence intensity at emission peak", "setting": "[3]; [9]", "result": 158071, "unit": "au"},
      {"measurement": "emission peak point", "setting": "[3]; [10]", "result": 390, "unit": "nm"},
      {"measurement": "fluorescence intensity at emission peak", "setting": "[3]; [10]", "result": 67541, "unit": "au"},
      {"measurement": "emission peak wavelength", "setting": "[3]; [11]", "result": 378, "unit": "nm"},
      {"measurement": "fluorescence intensity at peak", "setting": "[3]; [11]", "result": 29009, "unit": "au"},
      {"measurement": "human daily amount of CBDV corresponding to the rat MED", "setting": "[4]; 70 kg human, rat dose x 0.16 x 70", "result": 224, "unit": "mg/day"},
      {"measurement": "human equivalent dose of the rat MED", "setting": "[4]; rat dose multiplied by 0.16 (FDA dose conversion guidance)", "result": 3.2, "unit": "mg/kg/day"},
      {"measurement": "minimal effective dose (MED) attenuating sub-chronic PCP-induced deficit in novel object recognition", "setting": "[4]; rats, 2-20 mg/kg i.p., 60 min ppt, n=8-10 per group", "result": 20, "unit": "mg/kg"}
    ]}
  ]
}
